Laboratory results from patent publication US8039670B2, “Analogs of alpha galactosyceramide and uses thereof” (Ludwig Institute for Cancer Research, priority 2005, dated 2011).

What was measured:
[1] = target: T1, human invariant Vα24^+/Vβ11^+ TCR binding to hCD1d-lipid complex (Homo sapiens, UniProt P15813); assay: Surface plasmon resonance (Biacore) of soluble iNKT TCR binding to hCD1d monomers loaded with analogs; details: for Kd: equilibrium binding, read-out: Kd of the TCR binding to the monomer
T1 construct: soluble human CD1d molecules; made in house
Protocol: Affinity and kinetics of iNKT TCR binding to hCD1d complexed with α-GalCer or OCH. Increasing concentrations from 0.4 μM to 194 μM (two-fold dilution) of iNKT TCR were injected for 5 seconds over the indicated hCD1d-GSL complexes. The binding responses of 5 concentrations are shown superimposed. The panels on the right show binding response at equilibrium.
The affinities of a soluble NKT cell TCR for human CD1d molecules refolded with different analogs of α-GalCer were measured. Equilibrium binding and kinetic measurements respectively were made for α-GalCer (A and B), threitolceramide (C and D), 4S-threitolceramide (E and F), 4R-threitolceramide (G and H). The Kd values (μM) were calculated from equilibrium binding. The Kon values shown were calculated from Koff and Kd.
We then assessed whether the length of the acyl and sphingosine chains could affect the affinity of iNKT TCR binding to glycolipid-CD1d complex. We refolded Vα24 and Vβ11 chains of the iNKT TCR as previously described (Gadola, Koch et al, J Exp Med, 2006, 203; 699-710) and used the purified and refolded iNKT TCR in surface plasmon resonance studies against immobilized biotinylated CD1d monomers loaded with either α-GalCer or OCH.
To characterize the affinity of analogs of α-GalCer, biotinylated hCD1d monomers were generated using previously described protocols (Karadimitris, Gadola et al, Proc Natl Acad Sci USA, 2001, 98; 3294-8) bound to the different analogs. Surface plasmon resonance (Biacore) analysis was performed using a soluble disulphide-linked human invariant Vα24^+/Vβ11^+ TCR (Gadola, Koch et al, J Exp Med, 2006, 203; 699-710) to measure the equilibrium dissociation constants (Kd) of binding of the TCR to different monomers (FIG. 3).

human DC = assay: DC maturation in co-culture of human DC and iNKT cells (flow cytometry CD83, CD86, CD38); assay type: cell-based; details: for DC maturation (upregulation of CD83, CD86 and CD38): human DC with iNKT cell clone, 24 hours; for concentration inducing maximal DC maturation: titration on DC, 48 h
Protocol: Different analogs of α-GalCer as indicated or LPS were added to co-cultures of human DC and iNKT cells. (A) Maturation of the DC was assessed after 40 h, gating on CD11c positive cells. Histograms indicate the CD83 and CD86 profiles of DC from different treatments; the percentages indicate the percentage of CD83hi mature DC and the numbers in parenthesis, the mean fluorescence intensity of the population contained within the labeled gate. DC and iNKT cells were co-cultured in the presence of different analogs of α-GalCer for 24 hours. Supernatants were analyzed using ELISA for the presence of (B) IL-12p40 released by the DC and (C) IFN-γ from the iNKT cells. […] Cells were co-cultured in the presence of the indicated concentration of analog and the percentages of DC with increased CD83/CD80 are shown. […] Viability of α-GalCer or analog-pulsed DC was assessed after 40 h co-culture in the presence of iNKT cells by flow cytometry. Cells were stained with propidium iodide and the percentage of live CD11c gated cells remaining in the culture are shown.
Human monocyte-derived DC were pulsed with 150 ng of different inositol analogs and co-cultured with iNKT cells for 24 h. […] Numbers indicate the mean fluorescence intensity of the histogram gated on CD11c^+ cells.
Immature human DC were cultured in the presence of a human iNKT cell clone with or without analogs or vehicle at different concentrations.
To compare the functions of high affinity α-GalCer, intermediate affinity threitolceramide with the known, low affinity analog OCH, the three compounds were titrated onto DC and used to present to iNKT cells. Maturation of DC and DC viability were examined after 48 h.

E.G7-OVA tumour cells = assay: Prophylactic challenge with E.G7-OVA tumour cells after co-injection with OVA; assay type: in vivo, C57BL/6 mice; details: injected with OVA, challenge 7 days later with 1×10^6 E.G7-OVA s.c.
Protocol: (A) C57BL/6 mice were co-injected with 1 μg α-GalCer or analog and 800 μg OVA. 6 days later blood samples taken from the tail vein were stained directly ex vivo with fluorescent […]-K^b tetramers and an anti-CD8 antibody and analyzed by flow cytometry. Data are shown as tetramer positive cells as a percentage of CD8^+ cells. (B) 7 days after injection, the mice were challenged in a prophylactic setting with 1×10^6 E.G7-OVA tumour cells s.c. and the size of the tumour monitored over subsequent days.

IL-4 and IFN-γ = assay: Serum cytokines after i.v. injection into mice (ELISA); assay type: in vivo, C57BL/6 mice; details: for cytokine release in serum (IL-4, IFN-γ, IL-12p40/70): wild type mice, 1 μg i.v., 2, 6 and 18-24 h
Protocol: C57BL/6 or iNKT^−/− mice were injected i.v. with 1 μg of vehicle, α-GalCer, analog or 25 μg MPL. Twenty hours after injection splenocytes were stained with antibodies against CD11c, B220 and CD86 and analyzed by flow cytometry. (A) Maturation was assessed by the upregulation of CD86 at the cell surface, gating on DC (CD11c^+). Mean fluorescence intensity for each histogram is indicated. These are representative profiles of two independent experiments. 2, 6 and 18-24 h after injection as described, the mice were bled and the serum tested with ELISA for the presence of (B) IL-4 and (C) IFN-γ released in response to the analog.
Stimulation of iNKT cells by α-GalCer in the context of CD1d rapidly induces release of significant levels of a number of cytokines including IFN-γ and IL-4 (Burdin, Brossay et al, J Immunol, 1998, 161; 3271-81), IL-3 and GM-CSF (Leite-de-Moraes, Lisbonne et al, Eur J Immunol, 2002, 32; 1897-904) with other downstream cell-types including DC (Kitamura, Iwakabe et al, J Exp Med, 1999, 189; 1121-8) and NK cells (Carnaud, Lee et al, J Immunol, 1999, 163; 4647-50) being activated.

[2] = test system: human monocyte derived DCs; assay: Example A: DC maturation markers in human monocyte derived DC with NKT cells (FACS); assay type: cell-based; details: 100 ng/ml, 36 hours, 10 DC/NKT cell
Protocol: The methodology of Salio, et al., J. Immunol., 167:1188-1197 (2001), incorporated by reference, was followed. In brief, 2×105 human monocyte derived DCs were pulsed with 100 ng/ml of one of Compounds 2, 3, αGal-Cer, or vehicle solution, as a control. For DC pulsing, each of arabinitol ceramide (Compound 1), threitol ceramide (Compound 3), glycerol ceramide (Compound 2) and αGal-Cer was solubilized in vehicle solution (0.5% Tween 20/PBS), and added to the medium of the DC cultures. […] After 36 hours, supernatant was removed from cultures and analyzed for the presence of known DC maturation markers CD83, CD80, CD86, CD25, and CD38, all of which were analyzed via FACS, using well known methods.

p40 form of IL-12 = assay: Example A: IL-12 p40 ELISA as indication of DC stimulation; assay type: cell-based, human

Compound | Kd [1] | koff ([1]; kinetic measurement, read-out: rate of dissociation (Koff) between the TCR and the monomer) | DC maturation (upregulation of CD83, CD86 and CD38) (human DC) | concentration inducing maximal DC maturation (human DC) | tumour growth (E.G7-OVA tumour cells) | rate of dissociation (Koff) between the TCR and the monomer ([1]; kinetic measurement) | skewing of cytokine response to Th2 (IL-4 and IFN-γ; compared with OCH) | potency of cytokine induction compared with α-GalCer (IL-4 and IFN-γ; equivalent doses) | cytokine release in serum (IL-4, IFN-γ, IL-12p40/70) (IL-4 and IFN-γ) | induction of DC maturation markers (CD83, CD80, CD86, CD25, CD38) [2] | IL-12 potency relative to αGal-Cer (p40 form of IL-12) | IL-12 potency, fold less potent than Compound 3 (p40 form of IL-12)
CCCCCCCCCCCCCCCCCCCCCCCCCC(=O)N[C@@H](CO[C@H]1OC(CO)[C@H](O)C(O)C1O)[C@H](O)[C@H](O)CCCCCCCCCCCCCC (stereo partly drawn) [α-GalCer, α galactosylceramide, reference compound] | 1.29 µM | 0.37 s⁻¹ | significant upregulation of all the markers examined | 0.8 ng/mL | little or no tumour growth | – | – | – | – | – | – | –
CCCCCCCCCCCCCCCCCCCCCCCCCC(=O)N[C@@H](COC[C@H](O)[C@@H](O)CO)[C@H](O)[C@H](O)CCCCCCCCCCCCCC [Compound 3, Threitol Ceramide] | 5.78 µM | – | more potent than glycerolceramide and arabinitolceramide | 67 ng/mL | little or no tumour growth | 1.04 s⁻¹ | Neither compound showed a skewed Th2 cytokine response | less potent than α-GalCer at equivalent doses | detected in the serum with a similar time-course to that seen with α-GalCer | DC maturation markers are induced | approximately 50% | –
CCCCCCCCCCCCCCCCCCCCCCCCCC(=O)N[C@@H](COC[C@@H](O)CO)[C@H](O)[C@H](O)CCCCCCCCCCCCCC [Compound 2, Glycerol Ceramide] | – | – | – | – | – | – | – | – | did not induce any detectable cytokine release | DC maturation markers are induced | – | approximately 1000 fold
